Laboratory results taken from US20070155823A1, “USE OF BENZO-FUSED HETEROCYCLE SULFAMIDE DERIVATIVES AS NEUROPROTECTIVE AGENTS” (priority 2005, published 2007).
Where “and” joins values, the source holds several entries; their conditions need not be identical. Equal entries are not always repeated.

Key:
Rat Hippocampal Cultures = assay: Cell Titer Glow/Cell Viability in vitro assay, rat hippocampal cultures, insult with 150 μM H2O2; type: cell-based; details: for Cell viability (Cell Titer Glow), single plate / Cell viability (Cell Titer Glow), Mean: rat hippocampal cultures, 150 μM H2O2 insult; for Cell viability (Cell Titer Glow), single plate: individual plates (each in triplicate), vehicle 0.5-0.6; for Cell viability (Cell Titer Glow), Mean: mean of 3 plates (n=9), vehicle mean 0.5
Experimental: (§1) Cell Titer Glow/Cell Viability In Vitro Assay
(§2) The assay was run according to the procedure listed within the insert of the kit purchased from Promega (see attachment at the end of the application).
(§3) Cell Cultures were prepared as follows. Dissociated hippocampal and cortical cell cultures were established from embryonic day 18 rat fetuses. The fetuses were removed via cesarean section from pregnant dams (Harlan Sprague-Dawley) anesthetized with halothane according to the AVMA Panel on Euthanasia. Pups were decapitated and the brains were removed and placed in Hank's Balanced Salt solution (1×HBSS; Gibco, Rockville, Md.). The hippocampi and cortices were dissected out and pooled according to tissue-type. Tissue was trypsinized for 15 min (1 mg/ml trypsin-HBSS; Worthington, Lakewood, N.J.), rinsed with fresh HBSS, incubated in trypsin inhibitor (1 mg/ml; Sigma, St. Louis, Mo.) for 5 min, rinsed again with fresh HBSS and then triturated in 1 ml fresh HBSS with a fire-polished glass pipette. Dissociated cells were seeded at 10,000 cells/well onto poly-D-lysine coated 96-well plates (BD BioScience, Bedford, Ma.) containing 100 ul/well Eagle's Minimal Essential Media (MEM; Gibco) supplemented with 26 mM NaHCO3 (Sigma), 40 mM glucose (Sigma), 20 mM KCl (Sigma), 1 mM sodium pyruvate (Sigma), 10% (v/v) heat-inactivated fetal bovine serum (Hyclone, Logan, Utah), and 0.001% gentamicin sulfate (Sigma) (pH 7.4). Serum-free cultures were plated and maintained in Neurobasal medium+B27 supplement (Gibco). Cells were allowed to attach for 24 h in a humidified 37° C. 5% CO2 incubator before experimental treatment.
(§4) Test compounds were prepared as follows: A 10 mM stock in DMSO of each compound was diluted 1:50 in DPBS rendering a final stock of 200 μM. […] Equal amounts of vehicle or diluted compound were added to each culture well.
(§5) A 30% stock solution of hydrogen peroxide (H2O2; Sigma) was diluted with DPBS 1:100 to yield a […] stock. Five microliters of vehicle or H2O2 stock solution was added to each 100 ul culture well to yield a final concentration of 150 uM.
(§6) Note that in the data listed below, each plate was run in triplicate for a total of n=9.

[1] = system: Rat Cerebral Cortical Cultures; assay: Cell Titer Glow/Cell Viability in vitro assay, rat cerebral cortical cultures, insult with 150 μM H2O2; type: cell-based; details: 150 μM H2O2 insult; for Cell viability (Cell Titer Glow), single plate: individual plates (each in triplicate), vehicle 0.8-1.2; for Cell viability (Cell Titer Glow), Mean: mean of 3 plates (n=9)
Experimental: as §1, §2, §3, §4, §5, §6

SMILES	Cell viability (Cell Titer Glow), single plate (Rat Hippocampal Cultures; compound 0.1 μM)	Cell viability (Cell Titer Glow), Mean (Rat Hippocampal Cultures; compound 0.1 μM, SD 1, **p < 0.01)	Cell viability (Cell Titer Glow), single plate (Rat Hippocampal Cultures; compound 1 μM)	Cell viability (Cell Titer Glow), Mean (Rat Hippocampal Cultures; compound 1 μM, SD 0.6)	Cell viability (Cell Titer Glow), single plate (Rat Hippocampal Cultures; compound 10 μM)	Cell viability (Cell Titer Glow), Mean (Rat Hippocampal Cultures; compound 10 μM, SD 3)	Protection of neurons from death and/or damage from oxidative stress or oxidative injury (Rat Hippocampal Cultures; summary in words of Tables 4 and 5 (rat hippocampal and cerebral cortical cultures, 150 μM H2O2))	Cell viability (Cell Titer Glow), single plate ([1]; compound 0.1 μM)	Cell viability (Cell Titer Glow), Mean ([1]; compound 0.1 μM, SD 35, vehicle mean 1, *p < 0.05)	Cell viability (Cell Titer Glow), single plate ([1]; compound 1 μM)	Cell viability (Cell Titer Glow), Mean ([1]; compound 1 μM, SD 16, vehicle mean 1)	Cell viability (Cell Titer Glow), single plate ([1]; compound 10 μM)	Cell viability (Cell Titer Glow), Mean ([1]; compound 10 μM, SD 22, vehicle mean 1)	melting point [°C]
NS(=O)(=O)NC[C@H]1COc2cc(Cl)ccc2O1 [Compound #8, (2S)-(−)-N-(6-Chloro-2,3-dihydro-benzo[1,4]dioxin-2-ylmethyl)-sulfamide]	24 (2×) and 26	25**	16 and 17 (2×)	17	10 and 14 and 15	13	effective at protecting neurons from death and/or damage from oxidative stress or oxidative injury	28 and 64 and 97	63*	19 and 51 and 38	36	10 and 18 and 51	26	–
NS(=O)(=O)NCC1CCc2ccccc2O1 (centres unmarked) [Compound #10, Chroman-2-ylmethylsulfamide]	–	–	–	–	–	–	–	–	–	–	–	–	–	100 to 101
